Test: xn = mol fraction of the nth substance listed

C=CC(=O)OC + CCCCCO
viscosity [mPa·s], 101.33 kPa
Settings	308.15 K	318.15 K
x1 = 0.0469	2.288	1.82
x1 = 0.148	1.725	1.406
x1 = 0.2501	1.327	1.104
x1 = 0.3489	1.053	0.89
x1 = 0.4436	0.86	0.735
x1 = 0.5084	0.758	0.651
x1 = 0.545	0.708	0.61
x1 = 0.6489	0.594	0.514
x1 = 0.7484	0.513	0.445
x1 = 0.8456	0.454	0.392
x1 = 0.9477	0.409	0.35

CCOC(=O)CC + CCCCCC
303.15 K, 101 kPa
Settings	viscosity [mPa·s]
x1 = 0.1832	0.2997
x1 = 0.3971	0.3276
x1 = 0.4989	0.3451
x1 = 0.5988	0.3661
x1 = 0.8005	0.4138

Cc1ccccc1O + C1COCCO1
308.15 K, 101 kPa
Settings	viscosity [mPa·s]
x2 = 0.1	4.947
x2 = 0.2	4.855
x2 = 0.3	4.267
x2 = 0.4	3.498
x2 = 0.5	2.795
x2 = 0.6	2.208
x2 = 0.7	1.764
x2 = 0.8	1.382
x2 = 0.9	1.163

CCCCCOC(C)=O + CC(=O)OCc1ccccc1
Settings	viscosity [mPa·s]
298.15 K, 101 kPa, x1 = 0.5	0.9738

CCCCCOC(C)=O + CCCCO
viscosity [mPa·s], 101.33 kPa
Settings	x1 = 0.1138	x1 = 0.2047	x1 = 0.3089	x1 = 0.4008	x1 = 0.5	x1 = 0.6103	x1 = 0.7064	x1 = 0.8088	x1 = 0.9025
293.15 K	2.52	2.275	2.024	1.825	1.633	1.443	1.295	1.154	1.039
303.15 K	2.02	1.838	1.649	1.499	1.353	1.206	1.092	0.982	0.891
313.15 K	1.515	1.395	1.269	1.167	1.066	0.964	0.883	0.805	0.739
323.15 K	1.009	0.948	0.883	0.83	0.776	0.72	0.674	0.629	0.59

C=CC(=O)OC + CCCCCCCCO
viscosity [mPa·s], 101.3 kPa
Settings	x1 = 0.0847	x1 = 0.2398	x1 = 0.3089	x1 = 0.4269	x1 = 0.5391	x1 = 0.7233	x1 = 0.8011	x1 = 0.8748	x1 = 0.9408	x1 = 0.9698
298.15 K	5.555	3.533	2.795	1.948	1.353	0.857	0.692	0.566	0.506	0.47
308.15 K	4.155	2.757	2.06	1.583	1.127	0.732	0.622	0.497	0.433	0.415

OCCOCCOCCOCCOCCOCCOCCOCCOCCO + O
viscosity [mPa·s], 100 kPa
Settings	293.15 K	298.15 K	303.15 K	308.15 K	313.15 K	318.15 K	323.15 K
x2 = 0.093	124.5	93.99	72.59	57.45	46.04	37.51	30.97
x2 = 0.12	121.6	92.08	71.18	56.4	45.22	36.83	30.41
x2 = 0.187	120.7	91.49	70.11	55.25	44.27	36.03	29.76
x2 = 0.256	117.4	88.73	68.34	54.28	43.47	35.36	29.19

CC(C)(C)c1ccccc1 + Cc1ccccc1
303.15 K, 101.3 kPa
Settings	viscosity [mPa·s]
x2 = 0.0457	0.974
x2 = 0.0865	0.949
x2 = 0.2449	0.8605
x2 = 0.3937	0.7829
x2 = 0.4453	0.7568
x2 = 0.5167	0.7206
x2 = 0.6672	0.6507
x2 = 0.7678	0.6057
x2 = 0.8687	0.5626
x2 = 0.957	0.5317
x2 = 0.9788	0.5253

Cc1ccccc1O + CC(=O)O
viscosity [mPa·s], 101 kPa
Settings	x2 = 0.167	x2 = 0.3109	x2 = 0.4361	x2 = 0.5461	x2 = 0.6434	x2 = 0.7302	x2 = 0.8081	x2 = 0.8783	x2 = 0.942
298.15 K	5.871	4.718	3.853	3.149	2.615	2.165	1.808	1.529	1.307
308.15 K	4.539	3.776	3.151	2.619	2.204	1.86	1.595	1.328	1.139
318.15 K	3.157	2.82	2.465	2.137	1.812	1.542	1.322	1.135	0.9519

CC(C)(C)c1ccccc1 + CCCCCCCCCCCCCCCC
viscosity [mPa·s], 100 kPa
Settings	x2 = 0.0661	x2 = 0.106	x2 = 0.2088	x2 = 0.3087	x2 = 0.3877	x2 = 0.5114	x2 = 0.621	x2 = 0.6915	x2 = 0.8377	x2 = 0.9225
298.15 K	1.236	1.297	1.442	1.566	1.675	1.87	2.073	2.235	2.597	2.821
308.15 K	1.065	1.111	1.235	1.343	1.427	1.584	1.749	1.868	2.138	2.298
318.15 K	0.928	0.968	1.072	1.17	1.247	1.382	1.513	1.606	1.804	1.914

C=CC(=O)OC + CCCCCCCO
viscosity [mPa·s], 101.3 kPa
Settings	x1 = 0.0803	x1 = 0.219	x1 = 0.2841	x1 = 0.4009	x1 = 0.5184	x1 = 0.7017	x1 = 0.7824	x1 = 0.8604	x1 = 0.9347	x1 = 0.9686
298.15 K	4.278	2.912	2.304	1.632	1.218	0.783	0.653	0.563	0.493	0.467
308.15 K	3.262	2.282	1.857	1.348	1.032	0.677	0.568	0.49	0.428	0.411

CCCCCOC(C)=O + CC(C)=O
298.15 K, 101 kPa
Settings	viscosity [mPa·s]
x2 = 0.17	0.688
x2 = 0.336	0.6224

CCCCCCCCCCCCCC(=O)OC + CCCCCO
viscosity [mPa·s], 100 kPa
Settings	x2 = 0.1012	x2 = 0.2002	x2 = 0.2997	x2 = 0.4007	x2 = 0.4997	x2 = 0.6007	x2 = 0.7006	x2 = 0.7997	x2 = 0.9
293.15 K	4.279	4.092	3.927	3.791	3.695	3.592	3.512	3.539	3.679
298.15 K	3.789	3.61	3.474	3.371	3.249	3.162	3.1	3.1	3.191
303.15 K	3.336	3.189	3.071	2.96	2.868	2.794	2.729	2.72	2.795
308.15 K	2.932	2.809	2.701	2.603	2.524	2.454	2.397	2.384	2.429
313.15 K	2.641	2.533	2.43	2.342	2.268	2.197	2.15	2.126	2.159
318.15 K	2.42	2.318	2.234	2.142	2.071	2.006	1.96	1.938	1.949
323.15 K	2.18	2.089	2.009	1.931	1.865	1.803	1.764	1.73	1.738

O=C1CCCN1C1CCCCC1 + O=C1CCCN1
298.15 K, 100 kPa
Settings	viscosity [mPa·s]
x1 = 0.0107	13.4
x2 = 0.0201	10.5
x2 = 0.0289	10.56
x2 = 0.0403	10.66
x2 = 0.0491	10.72
x2 = 0.0694	10.86
x2 = 0.08	10.94
x2 = 0.0913	11.02
x2 = 0.0973	11.06
x2 = 0.1019	11.11
x2 = 0.1982	11.73
x2 = 0.2954	12.31
x2 = 0.3091	12.44
x2 = 0.389	12.77
x2 = 0.4916	13.18
x2 = 0.602	13.5
x2 = 0.7053	13.64
x2 = 0.8042	13.66
x2 = 0.902	13.66
x2 = 0.9031	13.63
x2 = 0.9108	13.62
x2 = 0.9153	13.63
x2 = 0.9306	13.59
x2 = 0.9503	13.56
x2 = 0.9597	13.54
x2 = 0.9696	13.49
x2 = 0.979	13.45

CC(C)CO + CCO
101 kPa, x2 = 0.5
Settings	viscosity [mPa·s]
308.15 K	1.598
313.15 K	1.479
318.15 K	1.308

Cc1ccccc1O + Oc1ccccc1
298.15 K, 101 kPa
Settings	viscosity [mPa·s]
x2 = 0.1343	7.835
x2 = 0.1973	7.93
x2 = 0.3	8.099
x2 = 0.3881	8.235
x2 = 0.491	8.404
x2 = 0.6283	8.565
x2 = 0.6927	8.645
x2 = 0.7579	8.731
x2 = 0.8003	8.757
x2 = 0.873	8.825
x2 = 0.901	8.851

C1CCC2=[NH+]CCCN2CC1.c1nc[n-]n1 + CCCCO
303.15 K, 100 kPa
Settings	viscosity [mPa·s]
x1 = 0.1001	6.47
x1 = 0.2	12.31
x1 = 0.2999	22.82
x1 = 0.4003	42.54
x1 = 0.4989	74.34
x1 = 0.6002	128.6
x1 = 0.7008	204.7
x1 = 0.7993	423.5
x1 = 0.9002	608.2

C=CC(=O)OC + CC#N
viscosity [mPa·s], 100 kPa
Settings	293.15 K	298.15 K	303.15 K	308.15 K	313.15 K	318.15 K
x2 = 0.0591	0.4934	0.4511	0.4118	0.3786	0.3488	0.3221
x2 = 0.1171	0.4832	0.4422	0.4042	0.3721	0.3431	0.3171
x2 = 0.17	0.474	0.4343	0.3976	0.3664	0.3383	0.313
x2 = 0.2356	0.4627	0.4247	0.3896	0.3597	0.3327	0.3083
x2 = 0.2977	0.4524	0.416	0.3824	0.3537	0.3278	0.3043
x2 = 0.3615	0.4422	0.4074	0.3754	0.348	0.3232	0.3007
x2 = 0.4343	0.431	0.398	0.3679	0.3419	0.3185	0.2971
x2 = 0.5014	0.4212	0.3899	0.3614	0.3368	0.3146	0.2943
x2 = 0.5738	0.4112	0.3818	0.3551	0.332	0.311	0.2918
x2 = 0.6537	0.4009	0.3736	0.349	0.3274	0.3078	0.2897
x2 = 0.7623	0.3881	0.3635	0.3417	0.3223	0.3046	0.2883
x2 = 0.8155	0.3823	0.3592	0.3387	0.3204	0.3037	0.2882
x2 = 0.9074	0.3729	0.3523	0.3342	0.3179	0.303	0.2889

CCCCCC + CCCCCCCCCC
298.15 K, 101.33 kPa
Settings	viscosity [mPa·s]
x1 = 0.1074	0.7809
x1 = 0.2074	0.7182
x1 = 0.3029	0.6515
x1 = 0.4046	0.5846
x1 = 0.5041	0.5315
x1 = 0.6061	0.4805
x1 = 0.7053	0.4337
x1 = 0.8034	0.3791
x1 = 0.9036	0.3365

O=C(O)CO + O=C(O)[C@@H]1CCCN1
323 K, 100 kPa
Settings	viscosity [mPa·s]
x2 = 0.25	480
x2 = 0.338	1340
x2 = 0.504	8080

C=CC(=O)OC + CO
viscosity [mPa·s], 101.33 kPa
Settings	308.15 K	318.15 K
x1 = 0.0546	0.464	0.419
x1 = 0.157	0.443	0.412
x1 = 0.2569	0.426	0.404
x1 = 0.3537	0.413	0.397
x1 = 0.453	0.403	0.388
x1 = 0.501	0.399	0.384
x1 = 0.5588	0.394	0.379
x1 = 0.655	0.39	0.369
x1 = 0.7566	0.387	0.359
x1 = 0.8561	0.387	0.349
x1 = 0.9556	0.389	0.338
